# According to patent publication US20210179683A1, “METHOD OF RESPONSE PREDICTION FOR BCL2 FAMILY PROTEIN TARGETING DRUG” (Proteina Co., Ltd., priority 2019, published 2021):
# Columns and labels:
# [1] = molecular target: T1, BCL2-BAD interaction (Homo sapiens, UniProt P10415); assay: PPI between endogenous BCL2 of drug-treated cells and exogenous BAD-GFP (single-molecule pull-down, TIRF); assay type: cell-based; details: 24 hours
# T1 construct: endogenous in cells; host or cells: HL60, OCI-LY3
# Experimental: (§1) Blood cancer cells (The Korean Cell Line Bank and ATCC; HL-60 (CVCL_0002), OCI-LY3 (CVCL_8800)), Ramos (CVCL_0597), U937, THP1, and SUDHL8) and the blood cancer cell pellets from buffy coats of patients were each suspended in a lysis buffer (HEPES 50 mM NaCl 150 mM Glycerol 10% (w/v) GDN (Digitonin) 1% (w/v) with 2% (w/v) phosphatase inhibitor cocktail ⅔ (P5726, P0044)) and vortexed three times at regular intervals of 10 min. After 30 min, the lysis buffer containing the pellet homogenate was centrifuged at 15,000 g for 10 min. The supernatant thus formed was used as an analysis lysate to be applied to a substrate in subsequent experiments. […]
# The cell lysate, prepared in Example 1.2, containing the probe-labeled first protein-interacting protein was added to the substrate prepared in Example 1.3. […] Then, protein-protein interactions were measured as follows:
# The substrate was fixedly mounted on a total internal reflection fluorescence and imaged to obtain data for protein-protein interaction (binding). […]
# (§2) For example, the method proposed in this Example can quantitatively measure changes in PPI intensity and complex formation after and before treatment with BCL2-targeting inhibitors. […]
# [2] = molecular target: T2, BCL-XL (Homo sapiens, UniProt Q07817); assay: PPI of endogenous BCL-XL of drug-treated cells with exogenous BAD; assay type: cell-based; details: HL60 or OCI-LY3 cells, 100 nM, 24 hours, vs DMSO
# T2 construct: endogenous in cells; host or cells: HL60, OCI-LY3
# Experimental: as §1
# The cell lysate, prepared in Example 1.2, containing the probe-labeled first protein-interacting protein was added to the substrate prepared in Example 1.3. […] Then, protein-protein interactions were measured as follows: […]
# as §2
# [3] = molecular target: T3, MCL1-NOXA interaction (Homo sapiens, UniProt Q07820); assay: PPI between endogenous MCL1 of drug-treated cells and exogenous GFP-NOXA; assay type: cell-based; details: HL60 or OCI-LY3 cells, 100 nM, 24 hours, vs DMSO
# T3 construct: endogenous in cells; host or cells: HL60, OCI-LY3
# Experimental: Excess lysate was washed off with a washing buffer (HEPES 50 mM NaCl 150 mM glycerol 1% GDN 0.03%). Then, protein-protein interactions were measured as follows: […]
# [4] = molecular target: T4, BCL2-BIM interaction (Homo sapiens, UniProt P10415); assay: BCL2-BIM PPI intensity with inhibitor added together with BIM-GFP to pulled-down BCL2; assay type: binding; details: various concentrations of inhibitor added with BIM-GFP; BCL2 from HL60
# Experimental: Excess lysate was washed off with a washing buffer (HEPES 50 mM NaCl 150 mM glycerol 1% GDN 0.03%). Then, protein-protein interactions were measured as follows:
# This Example can be used to measure direct relationship between targeting inhibitors used and the BCL2 family proteins and related signaling proteins. To this end, BCL2 or MCL1 protein was used as a first protein while BIM-GFP protein served as a first protein-interacting protein.
# [5] = system: BCL2; assay: BCL2 expression level in drug-treated cells; details: OCI-LY3 cells, 24 hours
# [6] = system: BAX (N-terminus exposed); assay: Detection of N-terminus exposed (active conformation) BAX in GDN lysates of drug-treated cells; assay type: cell-based, human; details: Staurosporine for one hour or venetoclax for 24 hours; lysis buffer containing GDN
# From the text: (§3) In order to achieve this Example, a specimen may be prepared by artificially inducing apoptosis.
# [7] = system: BAX; assay: BAX level after forced N-terminus exposure with Triton X-100 in lysates of drug-treated cells; assay type: cell-based, human; details: Staurosporine for one hour or venetoclax for 24 hours; lysis buffer containing Triton X-100
# From the text: as §3
# [8] = system: leukocyte count; assay: Leukocyte count of treated blood cancer patients; assay type: in vivo, human
# From the text: The method provided herein can lead to a method for tracing molecular states of a patient with time. In greater detail, the interaction analysis of bone marrow or blood specimens collected at various stages from a blood cancer patient can be used to provide information helpful in determining BCL2 family protein-dependence and whether to administer a corresponding targeted anticancer agent. […] Afterwards, a cord blood stem cell transplantation brought about complete remission in the patient. In addition, time series diagnosis was performed for patient 2 in the same manner as for patient 1 (FIG. 35). In patient 2, the signaling pathway of the BCL2 family protein could not be controlled by prescribing the FLT3 targeting inhibitor, either. […] From the results obtained above, it is understood that quizartinib prescription cannot bring about any clinical effect.
# [9] = molecular target: T4, BCL2-BIM interaction; assay: BCL2-BIM PPI in bone marrow or whole blood specimens of blood cancer patients over the course of treatment; assay type: in vivo; design: PPI counts between BCL2, MCL1, or BCL-XL, all endogenous to the samples from patient 1, and exogenous BIM; from tissue; host or cells: bone marrow and whole blood of blood cancer patients; details: patient 1; bone marrow after quizartinib, whole blood after venetoclax and LDAC
# From the text: The method provided herein can lead to a method for tracing molecular states of a patient with time. In greater detail, the interaction analysis of bone marrow or blood specimens collected at various stages from a blood cancer patient can be used to provide information helpful in determining BCL2 family protein-dependence and whether to administer a corresponding targeted anticancer agent. […] Afterwards, a cord blood stem cell transplantation brought about complete remission in the patient.
# In addition, time series diagnosis was performed for patient 2 in the same manner as for patient 1 (FIG. 35). In patient 2, the signaling pathway of the BCL2 family protein could not be controlled by prescribing the FLT3 targeting inhibitor, either. […] From the results obtained above, it is understood that quizartinib prescription cannot bring about any clinical effect.
# T4 sequence (P10415 whole entry): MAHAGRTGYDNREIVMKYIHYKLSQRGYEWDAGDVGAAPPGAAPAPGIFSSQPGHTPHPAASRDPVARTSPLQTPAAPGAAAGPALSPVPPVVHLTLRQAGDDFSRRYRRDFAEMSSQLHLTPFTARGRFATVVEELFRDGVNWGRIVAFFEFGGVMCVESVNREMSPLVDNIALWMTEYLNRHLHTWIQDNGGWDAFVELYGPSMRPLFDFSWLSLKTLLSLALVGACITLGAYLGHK
# T1 sequence (P10415 whole entry): as above
# T3 sequence (Q07820 whole entry): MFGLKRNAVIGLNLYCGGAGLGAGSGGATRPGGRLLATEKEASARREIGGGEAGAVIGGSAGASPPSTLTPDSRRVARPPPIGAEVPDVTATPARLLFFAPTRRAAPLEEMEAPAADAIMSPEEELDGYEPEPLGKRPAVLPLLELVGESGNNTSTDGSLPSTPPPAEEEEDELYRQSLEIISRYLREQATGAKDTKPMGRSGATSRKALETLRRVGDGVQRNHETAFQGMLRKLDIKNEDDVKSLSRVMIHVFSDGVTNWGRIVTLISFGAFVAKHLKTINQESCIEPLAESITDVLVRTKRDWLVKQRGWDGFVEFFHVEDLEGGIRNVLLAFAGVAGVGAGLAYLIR
# T2 sequence (Q07817 whole entry): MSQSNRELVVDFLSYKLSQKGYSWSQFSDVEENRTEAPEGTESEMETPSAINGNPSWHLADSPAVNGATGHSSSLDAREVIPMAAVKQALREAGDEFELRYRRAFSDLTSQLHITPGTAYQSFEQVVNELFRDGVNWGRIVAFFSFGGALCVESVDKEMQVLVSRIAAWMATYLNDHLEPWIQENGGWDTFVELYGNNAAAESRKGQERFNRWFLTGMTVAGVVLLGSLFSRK
structure (smiles),measurement,setting,value
CO[C@H]1/C=C/C[C@H](C)[C@@H](C)S(=O)(=O)NC(=O)c2ccc3c(c2)N(C[C@@H]2CC[C@H]21)C[C@@]1(CCCc2cc(Cl)ccc21)CO3 [AMG176],BCL2-BAD PPI intensity,"[1]; HL60 and OCI-LY3 cells, 100 nM, vs DMSO",did not change
same,BCL-XL PPI intensity,[2],responsive to none
same,MCL1-NOXA PPI,[3],selectively increase
Cc1c2c(nn1C)CSCc1cc(n(C)n1)CSc1cc(c3ccccc3c1)OCCCc1c(C(=O)O)n(C)c3c-2c(Cl)ccc13 [AZD5991],BCL2-BAD interaction (PPI),"[1]; OCI-LY3 cells, vs non-treated group",no influences
same,BCL2-BIM PPI intensity,[4],not affected
same,expression level of BCL2,[5],does not incite a significant change
CN[C@@H]1C[C@H]2O[C@@](C)([C@@H]1OC)n1c3ccccc3c3c4c(c5c6ccccc6n2c5c31)C(=O)NC4 [Staurosporine],N-terminus exposed BAX signals,[6],increased signals
same,N-terminus-exposed BAX after artificial exposure with Triton X-100,[7],constant values
CC(C)(C)c1cc(NC(=O)Nc2ccc(-c3cn4c(n3)sc3cc(OCCN5CCOCC5)ccc34)cc2)no1 [quizartinib],leukocyte count,[8]; patient 1,drastic rise
same,leukocyte count,[8]; patient 2,about three folds increased
same,BCL2-BIM PPI,[9],drastic increase
